In brackets after ≈: the same amount, converted by molar mass. Non-standard residues stand in square brackets, D forms with d. Residues, ends and D or L forms follow the SMILES beside them. Nspe = C[C@H](NCC(=O)O)c1ccccc1; Nphe = O=C(O)CNCc1ccccc1; Nlys = NCCCCNCC(=O)O
Key:
E. coli strain ATCC25922 = assay type: cell-based; details: for MBC E. coli: ATCC25922; for MIC E. coli: ATCC25922, 18 h
Experimental: (§1) In order to measure antimicrobial activity of the peptoids, Gram-positive S. aureus strain KCTC1621, or Gram-negative E. coli strain ATCC25922 was treated with the peptoids prepared in Preparation Example 1, and minimum inhibitory concentrations were measured. Peptoid NOS. 1 and 2 are already known peptoids and were used for the purpose of making a comparison with novel peptoids in terms of antimicrobial activity.
(§2) Specifically, S. aureus strain KCTC1621 or E. coli strain ATCC25922 was inoculated into Mueller Hinton Broth (MHB2) liquid medium on which cations were adjusted, cultured at a temperature of 37° C. for 18 hours, and then subcultured for 4 hours. Thereafter, the strains were diluted with MHB2 liquid medium containing 0.2% bovine serum albumin and 0.01% acetic acid so that each bacterial number was 2×10^5 colony-forming units (CFU) per 1 mL, and dispensed into 96-well microtiter plates at 100 μL each. A peptoid stock which is 40-fold more concentrated than a concentration to be tested was added to each well at 2.5 μL or lower so that the peptoid stock was 2-fold serially diluted using sterile water. Thereafter, the plates were incubated at a temperature of 37° C. for 18 hours.
(§3) Thereafter, absorbance was measured at a wavelength of 600 nm using a microplate reader (Bio-Rad). The lowest peptoid concentration that completely suppresses growth of microorganisms was measured by a minimum inhibitory concentration (MIC) and a minimum bactericidal concentration (MBC), and the measurement results are shown in Table 5 below. Each of the MIC values was calculated as an average value of numerical values obtained through three independent experiments.

[1] = tested on: S. aureus strain KCTC1621; assay type: cell-based; details: for MBC S. aureus: KCTC1621; for MIC S. aureus: KCTC1621, 18 h
Experimental: as §1, §2, §3

red blood cells = experiment: Hemolytic activity on red blood cells; assay type: cell-based, mouse
Experimental: In order to identify, through red blood cell hemolytic activity in mice, whether the peptoids synthesized in Preparation Example 1 are cytotoxic, red blood cells isolated from 10 mL of mouse blood were washed three times with phosphate-buffered saline (PBS, mixed solution of 35 mM phosphate buffer/150 mM NaCl, pH 7.4), and then centrifuged at a centrifugal force of 1,000 ×g for 10 minutes. A 10% (v/v) red blood cell solution diluted with PBS was dispensed into a 96-well microtiter plate at 150 μL each, and then a peptide solution was added at 50 μL each. Thereafter, the 96-well microtiter plate was incubated at a temperature of 37° C. for 1 hour.
The incubated 96-well microtiter plate was centrifuged at a centrifugal force of 1,000×g for 5 minutes. Thereafter, supernatant was taken at 100 μL each and transferred to a new 96-well microtiter plate. Then, absorbance at a wavelength of 540 nm was measured (Table 6).
In this case, a value obtained in a case of being treated with 0.1% (v/v) Triton X-100 was set as 100% hemolysis, and hemolytic activity (degree of cell destruction) of the peptoids was calculated using the following Equation 1. In the Equation 1, A is absorbance of the peptoid solution at a wavelength of 540 nm, B is absorbance of 0.1% Triton X-100 at a wavelength of 540 nm, and C is absorbance of the PBS solution at a wavelength of 540 nm. In this case, Peptoid NO. […] Degree of cell destruction (% hemolysis)=(A−C)/(B−C)[…] [Equation 1]
In Table 6, HD10 means a peptoid concentration which causes 10% hemolysis of red blood cells, and HD50 means a peptoid concentration which causes 50% hemolysis of red blood cells. In addition, Hmax is a hemolysis rate (%) at 200 μM which is the highest peptoid concentration used in the experiment.
Hemolytic activity of Peptoid NOS. 1, 18 to 23, and the peptide Pexiganan was measured in the same manner as in Experimental Example 2.

P. aeruginosa (198B MDR) = experiment: MIC in multidrug-resistant bacteria panel, modified microdilution; assay type: cell-based; details: overnight, 37° C.
Experimental: (§4) Minimum inhibitory concentrations of the prepared peptoids for multidrug-resistant bacteria were measured using a modified microdilution method in Difco Mueller Hinton medium, and tests were done on a panel of bacterial pathogens which have resistance and tolerance against common antibiotics.
(§5) Briefly, a peptoid concentrate, which is 10-fold more concentrated than a final concentration, was serially diluted with a medium containing 0.2% bovine serum albumin and 0.01% acetic acid. 10 μL of the 10-fold concentrated peptoid concentrate and 90 μL of Muller Hinton medium were added to each well of a 96-well polypropylene microtitre plate. Bacteria were added to the plate so that a final concentration thereof was 2×10^5 CFU/mL, and then incubated overnight at a temperature of 37° C. The minimum inhibitory concentration was defined as a concentration at which no bacterial growth is observed.

P. aeruginosa (PA01) = experiment: as above; assay type: cell-based; details: overnight, 37° C.
Experimental: as §4, §5

[2] = tested on: S. epidermidis (ET-024 MRSA); experiment: as above; assay type: cell-based; details: overnight, 37° C.
Experimental: as §4, §5

[3] = Metabolic stability in human liver S9 fraction, HPLC; assay type: in vitro ADME; details: human
Experimental: In order to identify metabolic stability of the peptoids synthesized in Preparation Example 1, such peptoids were subjected to enzymatic reaction using S9 fraction which is a mixture of human liver tissue-extracted metabolic enzymes. Thereafter, for the reaction products, metabolites were quantitated using HPLC.
Specifically, Peptoid NOS. 1 and 4, and Pexiganan as a peptide control (40 μL each, 100 μM) were treated with […], 3.3 mM MgCl2, and 1.3 mM NADPH buffer (306 μL, pH=7.4), to prepare respective samples. The respective samples were treated with S9 fraction (2 μL, 0.1 mg/mL) and then incubated at a temperature of 37° C. When 0, 1, 4, and 24 hours had elapsed after treatment with the S9 fraction, 40 μL of each sample was taken out, and acetonitrile containing the same amount of 0.1% trifluoroacetic acid was used to stop activity of enzymes contained in the S9 fraction. Thereafter, proteins precipitated with acetonitrile were centrifuged at a condition of 1,000×g for 10 minutes at a temperature of 4° C. Then, supernatant was analyzed by HPLC to identify an amount of the remaining peptoid which had not been degraded by the enzymes in the S9 fraction.

E. coli = experiment: Selectivity analysis, HD10 divided by MIC for E. coli; details: HD10 of Table 6 divided by MIC for E. coli ATCC25922
Experimental: In order to identify changes in selectivity depending on alteration of degree of folding in helical structure of peptoids, selectivity of each peptoid was calculated using the resultant values measured in the Experimental Examples 1 and 2. The selectivity was obtained by dividing the HD10 value by the minimum inhibitory concentration for E. coli (Table 8).

E. coli (63103 ESBL) = experiment: MIC in multidrug-resistant bacteria panel, modified microdilution; assay type: cell-based; details: overnight, 37° C.
Experimental: as §4, §5

S. aureus (ATCC25923) = experiment: as above; assay type: cell-based; details: overnight, 37° C.
Experimental: as §4, §5

B. subtilis = assay type: cell-based; details: 18 h
Experimental: (§6) In order to measure antimicrobial activity of the peptoids, Gram-positive B. subtilis or Gram-negative E. coli strain DH5α was treated with Peptoid NOS. 1, 18 to 23, and the peptide Pexiganan, and minimum inhibitory concentrations were measured. Peptoid NOS. 1 and 2, and the peptide Pexiganan are already known antimicrobial peptoids and peptides, and were used for the purpose of making a comparison with novel peptoids in terms of antimicrobial activity.
(§7) Specifically, B. subtilis or E. coli DHS a was inoculated into LB liquid medium, and cultured at a temperature of 37° C. for 18 hours. Thereafter, the bacteria were diluted with LB medium so that each bacterial number was 2×10^5 colony-forming units (CFU) per 1 mL, and dispensed into 96-well microtiter plates at 100 μL each. The peptoid, which is 2-fold serially diluted using sterile water, was added to each well at 100 μL each. The plates were incubated at a temperature of 37° C. for 18 hours.
as §3, with “(MIC),” for “(MIC) and a minimum bactericidal concentration (MBC),”, “12” for “5”, “minimum inhibitory concentration” for “MIC”

E. coli strain DH5α = experiment: Antimicrobial activity of peptoids with altered cationic residues, MIC; assay type: cell-based; details: LB medium, 18 h
Experimental: as §6, §7
as §3, with “(MIC),” for “(MIC) and a minimum bactericidal concentration (MBC),”, “12” for “5”, “minimum inhibitory concentration” for “MIC”

in vitro = assay type: cell-based; details: human
Experimental: In order to determine whether the peptoids were cytotoxic against human cell lines, […] cell line (Korean Cell Line Bank) which is a human lung cell line was cultured in a DMEM (Dulbecco's modified Eagle's medium) culture solution containing 10% (v/v) fetal bovine serum (FBS) at 5% CO2 and a temperature of 37° C. 100 μL of DMEM medium was dispensed into each well of a 96-well microtiter plate so that the number of cells was 1.3×10^4, and then incubated overnight at a temperature of 37° C. in a 5% CO2 incubator. In this case, a DMEM medium was used as a negative control. Thereafter, the peptoid which is 2-fold serially diluted using sterile water was added to each well, and then incubated for 24 hours.
After incubation, 20 μL of an MTS solution [3-(4,5-dimethylthiazol-2-yl)-5-(3-carboxymethoxyphenyl)-2-(4-sulfophenyl)-2H-tetrazolium, inner salt; MTS] was added thereto and incubated at a temperature of 37° C. for 4 hours. Thereafter, % survival was calculated by measuring absorbance at a wavelength of 490 nm using an ELISA reader. The % survival was calculated as a percentage obtained by dividing the absorbance value for a well-treated with the peptoid by the absorbance value for a well containing control cells which had not been treated with the peptoid.

MIC E. coli (E. coli strain ATCC25922) [µM] | MIC S. aureus [1] [µM] | remaining amount after S9 fraction treatment ([3]; s9, 24 h) [%] | remaining at 24 h, 11.5 μM ([3]; s9, pH 7.4) [%] | Selectivity [HD10/MIC (E. coli)] (E. coli) | SMILES | MBC E. coli (E. coli strain ATCC25922) [µM] | MBC S. aureus [1] [µM] | HD10 (red blood cells) | HD50 (red blood cells) | minimum inhibitory concentration P. aeruginosa (198B MDR) (P. aeruginosa (198B MDR)) | minimum inhibitory concentration P. aeruginosa (PA01) (P. aeruginosa (PA01)) | minimum inhibitory concentration S. epidermidis (ET-024 MRSA) [2] | minimum inhibitory concentration E. coli (63103 ESBL) (E. coli (63103 ESBL)) | minimum inhibitory concentration S. aureus (ATCC25923) (S. aureus (ATCC25923)) | MIC B. subtilis (B. subtilis) [µM] | MIC E. coli (E. coli strain DH5α) [µM] | CC50 at 24 h (in vitro) [µM]
12.5 (≈ 21.5 µg/mL) | 3.1 (≈ 5.34 µg/mL) | ≥ 60 | 74 | 7.1 | C[C@@H](c1ccccc1)N(CC(=O)N(CCCCN)CC(=O)N(CC(=O)N(CC(=O)N(CCCCN)CC(=O)N(CC(=O)N(CC(=O)N(CCCCN)CC(=O)N(CC(=O)N(CC(N)=O)Cc1ccccc1)Cc1ccccc1)Cc1ccccc1)Cc1ccccc1)Cc1ccccc1)Cc1ccccc1)C(=O)CN(Cc1ccccc1)C(=O)CNCCCCN [compound 4] (H-[Nlys][Nphe][Nspe][Nlys][Nphe][Nphe][Nlys][Nphe][Nphe][Nlys][Nphe][Nphe]-NH2) | 25 (≈ 43 µg/mL) | 3.1 (≈ 5.34 µg/mL) | 89.6 | > 200 | 6.3 | 6.3 | <0.8 to 0.8 |  |  |  |  | 
25 (≈ 43.7 µg/mL) | 3.1 (≈ 5.42 µg/mL) |  |  | 3.3 | C[C@@H](c1ccccc1)N(CC(N)=O)C(=O)CN(Cc1ccccc1)C(=O)CN(CCCCN)C(=O)CN(Cc1ccccc1)C(=O)CN(Cc1ccccc1)C(=O)CN(CCCCN)C(=O)CN(Cc1ccccc1)C(=O)CN(Cc1ccccc1)C(=O)CN(CCCCN)C(=O)CN(C(=O)CN(C(=O)CNCCCCN)[C@@H](C)c1ccccc1)[C@@H](C)c1ccccc1 [compound 13] | 25 (≈ 43.7 µg/mL) | 6.3 (≈ 11 µg/mL) | 81.7 | > 200 | 6.3 | 6.3 | <0.8 to 0.8 | 6.3 | 3.1 |  |  | 
12.5 (≈ 21.9 µg/mL) | 3.1 (≈ 5.42 µg/mL) |  |  | 2.1 | C[C@@H](c1ccccc1)N(CC(=O)N(CCCCN)CC(=O)N(CC(=O)N(CC(=O)N(CCCCN)CC(=O)N(CC(=O)N(CC(N)=O)Cc1ccccc1)Cc1ccccc1)[C@@H](C)c1ccccc1)[C@@H](C)c1ccccc1)C(=O)CN(Cc1ccccc1)C(=O)CN(CCCCN)C(=O)CN(Cc1ccccc1)C(=O)CN(Cc1ccccc1)C(=O)CNCCCCN [compound 15] (H-[Nlys][Nphe][Nphe][Nlys][Nphe][Nspe][Nlys][Nspe][Nspe][Nlys][Nphe][Nphe]-NH2) | 25 (≈ 43.7 µg/mL) | 3.1 (≈ 5.42 µg/mL) | 26.8 | 155.8 | 6.3 |  | <0.8 to 0.8 | 6.3 | 3.1 |  |  | 
 |  |  |  |  | C[C@@H](c1ccc(Cl)cc1)N(CC(N)=O)C(=O)CN(C(=O)CN(CCCCN)C(=O)CN(C(=O)CN(C(=O)CN(CCCCN)C(=O)CN(C(=O)CN(C(=O)CN(CCCCN)C(=O)CN(C(=O)CN(C(=O)CNCCCCN)[C@@H](C)c1ccc(Cl)cc1)[C@@H](C)c1ccc(Cl)cc1)[C@@H](C)c1ccc(Cl)cc1)[C@@H](C)c1ccc(Cl)cc1)[C@@H](C)c1ccc(Cl)cc1)[C@@H](C)c1ccc(Cl)cc1)[C@@H](C)c1ccc(Cl)cc1 [compound 19] |  |  | < 6.25 | 10.4 |  |  |  |  |  | 6.1 (≈ 12.8 µg/mL) | >6.1 | 3
 |  |  |  |  | Cc1ccc([C@H](C)N(CC(N)=O)C(=O)CN(C(=O)CN(CCCCN)C(=O)CN(C(=O)CN(C(=O)CN(CCCCN)C(=O)CN(C(=O)CN(C(=O)CN(CCCCN)C(=O)CN(C(=O)CN(C(=O)CNCCCCN)[C@@H](C)c2ccc(C)cc2)[C@@H](C)c2ccc(C)cc2)[C@@H](C)c2ccc(C)cc2)[C@@H](C)c2ccc(C)cc2)[C@@H](C)c2ccc(C)cc2)[C@@H](C)c2ccc(C)cc2)[C@@H](C)c2ccc(C)cc2)cc1 [compound 20] |  |  | < 6.25 | 8.3 |  |  |  |  |  | 0.8 (≈ 1.55 µg/mL) | >6.1 | 8

From patent publication US10815275B2, “Antimicrobial peptoids with improved selectivity and use thereof” (priority 2018, dated 2020)
